How the values were obtained:
mTOR = biological target: T1, mTOR (Homo sapiens, UniProt P42345); experiment: mTOR HTR-FRET Assay; assay type: biochemical; conditions: HTR-FRET screening assay, GST-p70S6 kinase fragment substrate
T1 construct: Dilute TOR fraction 1:14 in “Simple TOR Buffer”
Procedure: The following is an example of an assay that can be used to determine the mTOR inhibitory activity of a test compound. Reagents are prepared as follows:
“Simple TOR buffer” (used to dilute high glycerol TOR fraction): 10 mM Tris pH 7.4, 100 mM NaCl, 0.1% Tween-20, 1 mM DTT (from 1M stock frozen at −20° C. just prior to use). For convenience a large quantity of “Simple TOR buffer” w/o DTT can be stored at 4° C. It can be brought to room temperature and DTT added just prior to dilution of TOR fraction.
5×KB/5×Mn/5×ATP solution (used to dilute substrate GST-p70S6kin 81 a.a. just prior to use) (40 ml screen quantity shown):
Enzyme solution: Dilute TOR fraction 1:14 in “Simple TOR Buffer”. For current lot that is 640 μg/ml TOR fraction diluted 14× to yield 45.7 μg/ml TOR in buffer (i.e. 7.85 ml TOR pooled fraction+102.1 ml Simple TOR buffer=110 ml 14× diluted TOR fraction). Each Enzyme Lot must be QC'd prior to assay.
Substrate solution: This may be prepared just prior to assay if preferred. Dilute 5.3 mg/ml GST-p70S6kinase fragment stock to 3.5 μg/ml (97 nM) working stock in 5×KB/5×Mn/5×ATP solution (i.e. 26.41 μL (5.3 mg/ml) GST-p70S6+40 ml 5×KB/5×Mn/5×ATP=40 ml 3.5 μg/ml (97 nM)).
Assay Buffer (for dilution of Antibodies used in Antibody Detection Reagent):
Antibody Detection Reagent (this reagent should be made just prior to addition to Assay Plates):
Using PlateTrak program (Screen) or Matrix Pipettor (SAR), 19.5 μL of diluted TOR fraction is added to assay plate in all test, reference or positive control wells. 19.5 μL of “Simple TOR buffer” is added to all negative control wells. If treating multiple plates with the same compounds, can increase volume of enzyme to multiples of 19.5 μL in a tall 384 well polypropylene plate.
Using EP3, 0.5 μl of test, reference or control DMSO is added to each well with mixing. Plates are incubated for 30 minutes at room temperature.
Using PlateTrak program (Screen) or Matrix Pipettor (SAR) 5 μL of 5×KB/5×Mn/5×ATP/5× substrate solution is added to each well of the assay plate to start the reaction. The solutions are mixed well and incubated for 2 hours at room temperature.
Using PlateTrak program (Screen) or Matrix Pipettor (SAR) 5 μL of 60 mM EDTA is added to stop the reaction. The solutions are mixed well and allowed to sit for 15-20 minutes before the next step.
Using PlateTrak program (Screen) or Matrix Pipettor (SAR) 10 μl of Antibody Detection Reagent is added. The solutions are mixes well and incubated for 5 hours to O/N to allow antibodies to form complexes with phosphorylated substrate.
Plates are read on AnalystHT using protocol Multi-Method protocol.

PKCθ = biological target: T2, PKCθ (Homo sapiens, UniProt Q04759); experiment: PKCθ IMAP Assay; assay type: biochemical; conditions: IMAP fluorescence polarization screening assay, 35 μM ATP
T2 construct: purchased Invitrogen
T2 sequence (Q04759 whole entry): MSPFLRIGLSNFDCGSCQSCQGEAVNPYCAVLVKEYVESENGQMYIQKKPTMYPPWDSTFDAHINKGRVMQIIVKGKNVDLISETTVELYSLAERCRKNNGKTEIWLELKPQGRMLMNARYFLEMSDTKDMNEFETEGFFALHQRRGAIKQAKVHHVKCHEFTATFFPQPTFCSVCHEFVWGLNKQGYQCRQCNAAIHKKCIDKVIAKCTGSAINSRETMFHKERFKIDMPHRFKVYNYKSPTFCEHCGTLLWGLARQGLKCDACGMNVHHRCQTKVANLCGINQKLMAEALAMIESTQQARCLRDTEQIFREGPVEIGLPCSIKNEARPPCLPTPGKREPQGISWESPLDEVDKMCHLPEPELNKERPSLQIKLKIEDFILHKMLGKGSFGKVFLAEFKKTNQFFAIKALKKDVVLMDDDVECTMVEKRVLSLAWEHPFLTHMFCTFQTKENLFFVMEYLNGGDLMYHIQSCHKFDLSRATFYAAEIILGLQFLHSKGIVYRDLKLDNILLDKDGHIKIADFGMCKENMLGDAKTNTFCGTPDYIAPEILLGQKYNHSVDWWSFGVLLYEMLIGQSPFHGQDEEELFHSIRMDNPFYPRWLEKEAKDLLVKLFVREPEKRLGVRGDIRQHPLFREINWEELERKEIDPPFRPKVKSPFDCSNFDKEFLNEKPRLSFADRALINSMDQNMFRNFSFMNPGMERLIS
Procedure: The following is an example of an assay that can be used to determine the PKCθ inhibitory activity of a test compound. Reagents are prepared as follows:
Assay Buffer: 50 mM HEPES (pH 7.6), 10 mM MgCl, 0.1 mM EDTA, 5 mM MBP, 0.01% Triton, 1 mM DTT, 0.05 mg/ml phosphatidyl serine, 0.05 mg/ml diacylglycerol.
The final concentration of PKCθ (Invitrogen) is 0.5 nM. The final concentration of substrate (FAM-AKRRRLSSLRA) (Molecular Devices) is 100 nM. The final concentration of ATP in the reaction is 35 μM. The final concentration of DMSO in the reaction is 2.5%.
Enzyme is kept in 5 μl aliquots and stored at −80° C. prior to use. Test compound is allowed to pre-incubate with enzyme for 45 minutes before the reactions is initiated.
The reaction mixture consists of: 5 μl of test compound in 10% DMSO, 5 μl of 400 nM substrate (FAM-AKRRRLSSLRA), 5 μl of […] PKCθ, and 5 μl of 140 μM ATP (ATP is added to the reaction mixture last to initiate the reaction) per well.
The reaction is allowed to proceed for 60 minutes and is terminated by adding 30 μl per well of 90% Progressive A buffer/10% Progressive B buffer and a 1:400 dilution of binding beeds (Molecular Devices).
The reaction is given a binding incubation time of at least 30 minutes prior to reading the fluorescence polarization signal on an Analyst reader (the following detector settings are used: fluorescein excitation-485 nm, fluorescein emission-530 nm, fluorescein dichroic-505 nm).

Compound | IC50 (mTOR) | IC50 (PKCθ) | melting point
CC(c1ccc(F)cc1)n1c(=O)[nH]c2ncc(-c3cccc4ncccc34)nc21 (stereo not drawn) [Compound 52, 1-(1-(4-fluorophenyl)ethyl)-6-(quinolin-5-yl)-1H-imidazo[4,5-b]pyrazin-2(3H)-one] | 5.1 to 10 µM | 0.1 to 5 µM | 
COc1ccc(Cn2c(=O)[nH]c3ncc(-c4cccc5ncccc45)nc32)cc1 [Compound 15, 1-(4-methoxybenzyl)-6-(quinolin-5-yl)-1H-imidazo[4,5-b]pyrazin-2(3H)-one] | 0.1 to 5 µM | > 30 µM | 
O=c1[nH]c2ncc(-c3cccc4ncccc34)nc2n1C1CCCOC1 (stereo not drawn) [Compound 58, 6-(quinolin-5-yl)-1-(tetrahydro-2H-pyran-3-yl)-1H-imidazo[4,5-b]pyrazin-2(3H)-one] | 10.1 to 20 µM | > 30 µM | 
O=c1[nH]c2ncc(-c3cccc4ncccc34)nc2n1CC1CCCC1 [Compound 50, 1-(cyclopentylmethyl)-6-(quinolin-5-yl)-1H-imidazo[4,5-b]pyrazin-2(3H)-one] | 0.1 to 5 µM | 10.1 to 20 µM | 
COc1cc(-c2cnc3[nH]c(=O)n(CC4CCOCC4)c3n2)cc(OC)c1OC [Compound 2, 1-((tetrahydro-2H-pyran-4-yl)methyl)-6-(3,4,5-trimethoxyphenyl)-1H-imidazo[4,5-b]pyrazin-2(3H)-one] | 0.1 to 5 µM | > 30 µM | 
CC(C)c1cccc(-c2cnc3[nH]c(=O)n(C(C)C)c3n2)c1 [Compound 37, 1-isopropyl-6-(3-isopropylphenyl)-1H-imidazo[4,5-b]pyrazin-2(3H)-one] |  | > 30 µM | 
CC(C)[C@H](CO)n1c(=O)[nH]c2ncc(-c3cccc4ncccc34)nc21 [Compound 12, (R)-1-(1-hydroxy-3-methylbutan-2-yl)-6-(quinolin-5-yl)-1H-imidazo[4,5-b]pyrazin-2(3H)-one] |  | > 30 µM | 
CC[C@@H](c1ccccc1)n1c(=O)[nH]c2ncc(-c3cccc4ncccc34)nc21 [Compound 44, (S)-1-(1-phenylpropyl)-6-(quinolin-5-yl)-1H-imidazo[4,5-b]pyrazin-2(3H)-one] |  | > 30 µM | 
COc1ccc(C(C)C)cc1-c1cnc2[nH]c(=O)n(C3CCCCC3)c2n1 [Compound 19, 1-cyclohexyl-6-(5-isopropyl-2-methoxyphenyl)-1H-imidazo[4,5-b]pyrazin-2(3H)-one] |  | > 30 µM | 
COc1ccc(C(C)C)cc1-c1cnc2[nH]c(=O)n([C@H]3CCOC3)c2n1 [Compound 29, (S)-6-(5-isopropyl-2-methoxyphenyl)-1-(tetrahydrofuran-3-yl)-1H-imidazo[4,5-b]pyrazin-2(3H)-one] |  | > 30 µM | 
O=c1[nH]c2ncc(-c3cccc4ncccc34)nc2n1C(c1ccccc1)c1ccccc1 [Compound 43, 1-benzhydryl-6-(quinolin-5-yl)-1H-imidazo[4,5-b]pyrazin-2(3H)-one] |  | > 30 µM | 
O=c1[nH]c2ncc(-c3ccc(O)cc3)nc2n1CC1CCOCC1 [Compound 6, 6-(4-hydroxyphenyl)-1-((tetrahydro-2H-pyran-4-yl)methyl)-1H-imidazo[4,5-b]pyrazin-2(3H)-one] | 0.1 to 5 µM |  | 
COc1ccc(C(C)C)cc1-c1cnc2[nH]c(=O)n(CC(C)C)c2n1 [Compound 21, 1-isobutyl-6-(5-isopropyl-2-methoxyphenyl)-1H-imidazo[4,5-b]pyrazin-2(3H)-one] |  | > 30 µM | 
COc1ccc(C(C)C)cc1-c1cnc2[nH]c(=O)n(CCO)c2n1 [Compound 22, 1-(2-hydroxyethyl)-6-(5-isopropyl-2-methoxyphenyl)-1H-imidazo[4,5-b]pyrazin-2(3H)-one] |  | > 30 µM | 
C[C@H](c1ccccc1)n1c(=O)[nH]c2ncc(-c3cccc4ccccc34)nc21 [Compound 3, (R)-6-(naphthalen-1-yl)-1-(1-phenylethyl)-1H-imidazo[4,5-b]pyrazin-2(3H)-one] |  | > 30 µM | 
C[C@@H](c1ccccc1)n1c(=O)[nH]c2nccnc21 [Compound 17, (S)-1-(1-phenylethyl)-1H-imidazo[4,5-b]pyrazin-2(3H)-one] |  | > 30 µM | 
COc1ccccc1-c1cnc2[nH]c(=O)n(C(C)C)c2n1 [Compound 38, 1-isopropyl-6-(2-methoxyphenyl)-1H-imidazo[4,5-b]pyrazin-2(3H)-one] |  | > 30 µM | 

Other lines, results leading:

IC50 (mTOR) | IC50 (PKCθ) | melting point | Compound
> 30 µM | > 30 µM |  | Cc1nc2[nH]c(=O)n([C@@H](C)c3ccccc3)c2nc1-c1cccc2ncccc12 [Compound 68, 5-methyl-1-((S)-1-phenylethyl)-6-(quinolin-5-yl)-1H-imidazo[4,5-b]pyrazin-2(3H)-one]
0.1 to 5 µM |  | 323 to 324 °C | CC(C)n1c(=O)[nH]c2ncc(-c3ccc(O)cc3)nc21 [Compound 88, 6-(4-hydroxyphenyl)-1-isopropyl-1H-imidazo[4,5-b]pyrazin-2(3H)-one]
0.1 to 5 µM |  | 296 to 297 °C | O=c1[nH]c2ncc(-c3ccc(O)cc3)nc2n1CC1CCCC1 [Compound 87, 1-(cyclopentylmethyl)-6-(4-hydroxyphenyl)-1H-imidazo[4,5-b]pyrazin-2(3H)-one]
> 30 µM |  |  | CC(c1ccccc1)n1c(=O)[nH]c2ncc(-c3cccc(N(C)C)c3)nc21 (stereo not drawn) [Compound 81, 6-(3-(dimethylamino)phenyl)-1-(1-phenylethyl)-1H-imidazo[4,5-b]pyrazin-2(3H)-one]
0.1 to 5 µM |  | 290 to 291 °C | CC(C)Cn1c(=O)[nH]c2ncc(-c3ccc(O)cc3)nc21 [Compound 89, 6-(4-hydroxyphenyl)-1-isobutyl-1H-imidazo[4,5-b]pyrazin-2(3H)-one]
5.1 to 10 µM |  |  | CC(c1ccccc1)n1c(=O)[nH]c2ncc(-c3cccc(N)c3)nc21 (stereo not drawn) [Compound 80, 6-(3-aminophenyl)-1-(1-phenylethyl)-1H-imidazo[4,5-b]pyrazin-2(3H)-one]
> 30 µM |  |  | CC(c1ccccc1)n1c(=O)oc2ncc(-c3cccc4ncccc34)nc21 (stereo not drawn) [Compound 86, 3-(1-phenylethyl)-5-(quinolin-5-yl)oxazolo[5,4-b]pyrazin-2(3H)-one]
0.1 to 5 µM |  | 271 to 272 °C | O=c1[nH]c2ncc(-c3ccc(O)cc3)nc2n1CC1CCCOC1 (stereo not drawn) [Compound 90, 6-(4-hydroxyphenyl)-1-((tetrahydro-2H-pyran-3-yl)methyl)-1H-imidazo[4,5-b]pyrazin-2(3H)-one]
 | > 30 µM |  | CC(c1ccc(S(C)(=O)=O)cc1)n1c(=O)[nH]c2ncc(-c3cccc4ncccc34)nc21 (stereo not drawn) [Compound 66, 1-(1-(4-(methylsulfonyl)phenyl)ethyl)-6-(quinolin-5-yl)-1H-imidazo[4,5-b]pyrazin-2(3H)-one]
 | 20.1 to 30 µM |  | CC(c1ccncc1)n1c(=O)[nH]c2ncc(-c3cccc4ncccc34)nc21 (stereo not drawn) [Compound 67, 1-(1-(pyridin-4-yl)ethyl)-6-(quinolin-5-yl)-1H-imidazo[4,5-b]pyrazin-2(3H)-one]
0.1 to 5 µM |  | 302 to 303 °C | O=c1[nH]c2ncc(-c3ccc(O)cc3)nc2n1CC1CCCCC1 [Compound 91, 1-(cyclohexylmethyl)-6-(4-hydroxyphenyl)-1H-imidazo[4,5-b]pyrazin-2(3H)-one]

— patent US7981893B2, “Heteroaryl compounds, compositions thereof, and methods of treatment therewith” (Signal Pharmaceuticals, LLC, priority 2006, dated 2011)
